± gives the standard deviation of the averaged measurements.
These molecules were tested on HL-60 (assay: cell viability (% survival relative to DMSO control); higher = less cytotoxic). Conditions: 1 µM; 72 h; co-treatment: pictilisib 100 nM.
Procedure, shortened: (§1)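 HL-60 cells grown in RPMI 1640 with 10% FBS were rescreened against the full library in 384-well plates, in duplicate, at five tenfold concentrations from 1 to 10,000 nM, alongside DMSO or 100 nM of one of three metabolic inhibitors for 72 h at 37 °C, 5% CO2. Reference wells contained DMSO or 10 μM proteasome inhibitor. Viability was read with CellTiter-Glo and normalised to these reference wells, and where reported, area under the curve was taken from four-parameter log-logistic fits in drc and PharmacoGx.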
C#CCN[C@@H]1CCc2ccccc21 [Rasagiline] was tested, and the cell viability was 95.6 ± 7.2%.
NC(CCC(=O)NC(CSCc1ccc(Br)cc1)C(=O)NCC(=O)OC1CCCC1)C(=O)OC1CCCC1 (centres undefined) [S-para-Bromobenzylglutathione cyclopentyl diester] gave a cell viability of 76.7 ± 18%.
For COc1cc(C2Oc3cc(C4Oc5cc(O)cc(O)c5C(=O)C4O)ccc3OC2CO)ccc1O (centres undefined) [Silibinin], the cell viability was 106 ± 9.9%.
Fc1ccc(CNc2ncnc3ccc(F)cc23)cc1 [Spautin 1] was tested, and the cell viability was 98.7 ± 6.6%.
With Cn1c2cc(S(C)=O)sc2c2cnn(Cc3cccc(N)c3)c(=O)c21 (centres undefined) [TEPP-46] the cell viability was 98.02 ± 0.85%.
CCCCCCCCCCCCCCOc1ccc(C(=O)O)o1 [TOFA] gave a cell viability of 107 ± 7.6%.
Molecule CN1CC(=O)N2[C@H](c3ccc4c(c3)OCO4)c3[nH]c4ccccc4c3C[C@@H]2C1=O [Tadalafil] has a cell viability of 93.4 ± 7.5%.

Same assay, conditions: 10 µM; 72 h; co-treatment: AZD3965 100 nM
In the case of CC(C)(F)C[C@H](N[C@@H](c1ccc(-c2ccc(S(C)(=O)=O)cc2)cc1)C(F)(F)F)C(=O)NC1(C#N)CC1 [Odanacatib], the cell viability is reported as 101 ± 3.8%.
With Nc1nc(O)c2c(CCc3ccc(C(=O)N[C@@H](CCC(=O)O)C(=O)O)cc3)c[nH]c2n1 [Pemetrexed] the cell viability was 28 ± 7.5%.
C=C1NC(=O)c2cc(CN(C)c3ccc(C(=O)N[C@@H](CCC(=O)O)C(=O)O)s3)ccc2N1 [Raltitrexed] gave a cell viability of 24.2 ± 2.7%.
For CNC(=C[N+](=O)[O-])NCCSCc1ccc(CN(C)C)o1 [Ranitidine], the cell viability was 100 ± 3%.
C#CCN[C@@H]1CCc2ccccc21 [Rasagiline] showed a cell viability of 99.9 ± 1.6%.
NC(CCC(=O)NC(CSCc1ccc(Br)cc1)C(=O)NCC(=O)OC1CCCC1)C(=O)OC1CCCC1 (centres undefined) [S-para-Bromobenzylglutathione cyclopentyl diester] was tested, and the cell viability was 77.1 ± 6.2%.
Molecule COc1cc(C2Oc3cc(C4Oc5cc(O)cc(O)c5C(=O)C4O)ccc3OC2CO)ccc1O (centres undefined) [Silibinin] has a cell viability of 102 ± 1.8%.
For Fc1ccc(CNc2ncnc3ccc(F)cc23)cc1 [Spautin 1], the cell viability was 71.3 ± 9.4%.
In the case of Cn1c2cc(S(C)=O)sc2c2cnn(Cc3cccc(N)c3)c(=O)c21 (centres undefined) [TEPP-46], the cell viability is reported as 100 ± 3.8%.
Molecule CCCCCCCCCCCCCCOc1ccc(C(=O)O)o1 [TOFA] has a cell viability of 100 ± 1.9%.
CN1CC(=O)N2[C@H](c3ccc4c(c3)OCO4)c3[nH]c4ccccc4c3C[C@@H]2C1=O [Tadalafil] showed a cell viability of 109 ± 1.1%.

Same assay, conditions: 10 µM; 72 h; co-treatment: DMSO vehicle
CC(C)(F)C[C@H](N[C@@H](c1ccc(-c2ccc(S(C)(=O)=O)cc2)cc1)C(F)(F)F)C(=O)NC1(C#N)CC1 [Odanacatib] was tested, and the cell viability was 97.6 ± 0.99%.
For Nc1nc(O)c2c(CCc3ccc(C(=O)N[C@@H](CCC(=O)O)C(=O)O)cc3)c[nH]c2n1 [Pemetrexed], the cell viability was 36.8 ± 1.9%.
C=C1NC(=O)c2cc(CN(C)c3ccc(C(=O)N[C@@H](CCC(=O)O)C(=O)O)s3)ccc2N1 [Raltitrexed] showed a cell viability of 27.6 ± 0.44%.
CNC(=C[N+](=O)[O-])NCCSCc1ccc(CN(C)C)o1 [Ranitidine] showed a cell viability of 96.1 ± 5.9%.
C#CCN[C@@H]1CCc2ccccc21 [Rasagiline] gave a cell viability of 95.4 ± 3%.
With NC(CCC(=O)NC(CSCc1ccc(Br)cc1)C(=O)NCC(=O)OC1CCCC1)C(=O)OC1CCCC1 (centres undefined) [S-para-Bromobenzylglutathione cyclopentyl diester] the cell viability was 94.4 ± 3.5%.
With COc1cc(C2Oc3cc(C4Oc5cc(O)cc(O)c5C(=O)C4O)ccc3OC2CO)ccc1O (centres undefined) [Silibinin] the cell viability was 97.72 ± 0.59%.
In the case of Fc1ccc(CNc2ncnc3ccc(F)cc23)cc1 [Spautin 1], the cell viability is reported as 78.31 ± 0.12%.
Work on Cn1c2cc(S(C)=O)sc2c2cnn(Cc3cccc(N)c3)c(=O)c21 (centres undefined) [TEPP-46] yielded a cell viability of 107 ± 3.7%.
CCCCCCCCCCCCCCOc1ccc(C(=O)O)o1 [TOFA] gave a cell viability of 97.592 ± 0.042%.
For CN1CC(=O)N2[C@H](c3ccc4c(c3)OCO4)c3[nH]c4ccccc4c3C[C@@H]2C1=O [Tadalafil], the cell viability was 112 ± 6.6%.

Same assay, conditions: 10 µM; 72 h; co-treatment: GSK2194069 100 nM
CC(C)(F)C[C@H](N[C@@H](c1ccc(-c2ccc(S(C)(=O)=O)cc2)cc1)C(F)(F)F)C(=O)NC1(C#N)CC1 [Odanacatib] gave a cell viability of 89.3 ± 6%.
For Nc1nc(O)c2c(CCc3ccc(C(=O)N[C@@H](CCC(=O)O)C(=O)O)cc3)c[nH]c2n1 [Pemetrexed], the cell viability was 32.2 ± 2.7%.
C=C1NC(=O)c2cc(CN(C)c3ccc(C(=O)N[C@@H](CCC(=O)O)C(=O)O)s3)ccc2N1 [Raltitrexed] gave a cell viability of 23.3 ± 6%.
In the case of CNC(=C[N+](=O)[O-])NCCSCc1ccc(CN(C)C)o1 [Ranitidine], the cell viability is reported as 102 ± 4.1%.
C#CCN[C@@H]1CCc2ccccc21 [Rasagiline] gave a cell viability of 99.9 ± 4%.
With NC(CCC(=O)NC(CSCc1ccc(Br)cc1)C(=O)NCC(=O)OC1CCCC1)C(=O)OC1CCCC1 (centres undefined) [S-para-Bromobenzylglutathione cyclopentyl diester] the cell viability was 87.2 ± 5.7%.
Molecule COc1cc(C2Oc3cc(C4Oc5cc(O)cc(O)c5C(=O)C4O)ccc3OC2CO)ccc1O (centres undefined) [Silibinin] has a cell viability of 97.3 ± 5%.
In the case of Fc1ccc(CNc2ncnc3ccc(F)cc23)cc1 [Spautin 1], the cell viability is reported as 58 ± 9.4%.
Cn1c2cc(S(C)=O)sc2c2cnn(Cc3cccc(N)c3)c(=O)c21 (centres undefined) [TEPP-46] showed a cell viability of 101 ± 1.6%.
CCCCCCCCCCCCCCOc1ccc(C(=O)O)o1 [TOFA] was tested, and the cell viability was 94.01 ± 0.71%.
In the case of CN1CC(=O)N2[C@H](c3ccc4c(c3)OCO4)c3[nH]c4ccccc4c3C[C@@H]2C1=O [Tadalafil], the cell viability is reported as 95.2 ± 2.1%.

Same assay, conditions: 10 µM; 72 h; co-treatment: pictilisib 100 nM
With CC(C)(F)C[C@H](N[C@@H](c1ccc(-c2ccc(S(C)(=O)=O)cc2)cc1)C(F)(F)F)C(=O)NC1(C#N)CC1 [Odanacatib] the cell viability was 90 ± 15%.
Molecule Nc1nc(O)c2c(CCc3ccc(C(=O)N[C@@H](CCC(=O)O)C(=O)O)cc3)c[nH]c2n1 [Pemetrexed] has a cell viability of 32.2 ± 1.7%.
Molecule C=C1NC(=O)c2cc(CN(C)c3ccc(C(=O)N[C@@H](CCC(=O)O)C(=O)O)s3)ccc2N1 [Raltitrexed] has a cell viability of 26.11 ± 0.13%.
For CNC(=C[N+](=O)[O-])NCCSCc1ccc(CN(C)C)o1 [Ranitidine], the cell viability was 96.9 ± 4.7%.
For C#CCN[C@@H]1CCc2ccccc21 [Rasagiline], the cell viability was 102 ± 1.2%.
NC(CCC(=O)NC(CSCc1ccc(Br)cc1)C(=O)NCC(=O)OC1CCCC1)C(=O)OC1CCCC1 (centres undefined) [S-para-Bromobenzylglutathione cyclopentyl diester] was tested, and the cell viability was 55.5 ± 3.4%.
With COc1cc(C2Oc3cc(C4Oc5cc(O)cc(O)c5C(=O)C4O)ccc3OC2CO)ccc1O (centres undefined) [Silibinin] the cell viability was 95.8 ± 2.6%.
Fc1ccc(CNc2ncnc3ccc(F)cc23)cc1 [Spautin 1] was tested, and the cell viability was 80.4 ± 9.9%.
In the case of Cn1c2cc(S(C)=O)sc2c2cnn(Cc3cccc(N)c3)c(=O)c21 (centres undefined) [TEPP-46], the cell viability is reported as 95.3 ± 2.4%.
Work on CCCCCCCCCCCCCCOc1ccc(C(=O)O)o1 [TOFA] yielded a cell viability of 2.06 ± 0.22%.
For CN1CC(=O)N2[C@H](c3ccc4c(c3)OCO4)c3[nH]c4ccccc4c3C[C@@H]2C1=O [Tadalafil], the cell viability was 89.9 ± 8.3%.

These molecules were tested on HL-60 (assay: area under dose-response curve (viability, 1 nM-10 uM) (fraction (0-1)); higher = more sensitive). Conditions: 72 h; co-treatment: AZD3965 100 nM.
Procedure, shortened: as §1
With CC(C)(F)C[C@H](N[C@@H](c1ccc(-c2ccc(S(C)(=O)=O)cc2)cc1)C(F)(F)F)C(=O)NC1(C#N)CC1 [Odanacatib] the “area under dose-response curve” value was less than 0.0301.
Nc1nc(O)c2c(CCc3ccc(C(=O)N[C@@H](CCC(=O)O)C(=O)O)cc3)c[nH]c2n1 [Pemetrexed] was tested, and the “area under dose-response curve” value was 0.24.
For C=C1NC(=O)c2cc(CN(C)c3ccc(C(=O)N[C@@H](CCC(=O)O)C(=O)O)s3)ccc2N1 [Raltitrexed], the “area under dose-response curve” value was 0.598.
In the case of CNC(=C[N+](=O)[O-])NCCSCc1ccc(CN(C)C)o1 [Ranitidine], the “area under dose-response curve” value is reported as less than 0.0301.
C#CCN[C@@H]1CCc2ccccc21 [Rasagiline] was tested, and the “area under dose-response curve” value was less than 0.0301.
In the case of COc1cc(C2Oc3cc(C4Oc5cc(O)cc(O)c5C(=O)C4O)ccc3OC2CO)ccc1O (centres undefined) [Silibinin], the “area under dose-response curve” value is reported as less than 0.0301.
For Fc1ccc(CNc2ncnc3ccc(F)cc23)cc1 [Spautin 1], the “area under dose-response curve” value was less than 0.0301.
For Cn1c2cc(S(C)=O)sc2c2cnn(Cc3cccc(N)c3)c(=O)c21 (centres undefined) [TEPP-46], the “area under dose-response curve” value was less than 0.0301.
For CCCCCCCCCCCCCCOc1ccc(C(=O)O)o1 [TOFA], the “area under dose-response curve” value was less than 0.0301.
In the case of CN1CC(=O)N2[C@H](c3ccc4c(c3)OCO4)c3[nH]c4ccccc4c3C[C@@H]2C1=O [Tadalafil], the “area under dose-response curve” value is reported as less than 0.0301.

Same assay, conditions: 72 h; co-treatment: DMSO vehicle
In the case of CC(C)(F)C[C@H](N[C@@H](c1ccc(-c2ccc(S(C)(=O)=O)cc2)cc1)C(F)(F)F)C(=O)NC1(C#N)CC1 [Odanacatib], the “area under dose-response curve” value is reported as less than 0.0301.
In the case of Nc1nc(O)c2c(CCc3ccc(C(=O)N[C@@H](CCC(=O)O)C(=O)O)cc3)c[nH]c2n1 [Pemetrexed], the “area under dose-response curve” value is reported as 0.233.
With C=C1NC(=O)c2cc(CN(C)c3ccc(C(=O)N[C@@H](CCC(=O)O)C(=O)O)s3)ccc2N1 [Raltitrexed] the “area under dose-response curve” value was 0.412.

Reference: the supplement of paper PMC8671470
